These results are taken from US20200215085A1, “Method to Abate Acute Airway Hypersensitivity and Asthma Attacks” (UTI Limited Partnership, priority 2017, published 2020).

Entries after “also recorded” stand apart in the source; their conditions may differ.

Assay [1] concerns carotid body. The assay can be described thus: en bloc perfused carotid body preparation: carotid sinus nerve response to LPA. Further details: species or system Sprague-Dawley rats. The note with it: for reduction of 5 μM LPA-mediated carotid sinus nerve excitation: 5 μM LPA (18:1), AMG9810 10 μM, BrP-LPA 1.5 μM, Ki16425 5 μM, mean±sem; for effect of LPAr blockade on carotid sinus nerve response to LPA (5 μM): BrP-LPA 1.5 μM or Ki16425 5 μM, FIGS. 2A-2B; for en bloc carotid body's response to LPA blocked: en bloc preparation.

For another assay, the system named is OVA-sensitized rats. The assay can be described thus: bradykinin-induced bronchoconstriction (RL, Flexivent) in anesthetized ovalbumin-sensitized rats. The following applies: nebulized 0.4 mg bradykinin at 1, 10, 20 min, antagonists iv (BrP-LPA 3 mg/kg, Ki16425 5 mg/kg, AMG9810 10 μM/kg). The assay is classed as in vivo, Brown Norway rats. The procedure:
In order to examine the involvement of LPA-induced carotid body activity on airway resistance in response to bradykinin nebulization, alfaxan-anesthetized animals and the Flexivent system were used. These experiments were performed with a number of acute interventions affecting the proposed pathway, including vagotomy, carotid body denervation, and TRPV1 and/or LPA receptor blockade. Prior to bradykinin, these interventions had no effect on airway resistance (Holm-S̆idák post hoc test comparing asthma control vs any manipulation group: p>0.06) and as expected, bradykinin had no effect on non-asthmatic lungs (p>0.3). However, the acute bronchoconstriction induced by bradykinin in asthmatic lungs was diminished by at least 60% with all interventions (FIG. 4B). The loss of bradykinin-induced bronchoconstriction also occurred in chronic carotid body denervated, but not sham rats (data not shown).
Brown Norway rats (80-120 g) were sensitized to ovalbumin (1 mg) with pertussis toxin (0.5 ng) and aluminum hydroxide as adjuvant (0.15 g) dissolved in saline (1 ml ip; OVA sensitized), or saline (1 ml ip; Naïve) for three consecutive days (Days 1, 2, and 3) and challenged with aerosolized 5% ovalbumin (OVA, dissolved in 0.9% saline) or saline (Naïve) on days 15, 18 and 21 for 10 min. All anaesthetized experiments conducted on OVA and Naïve rats were conducted ˜7 days (day 28) following the last aerosol exposure. […]
OVA Cohort 1 (n=26): To determine the effect of bradykinin and OVA-sensitization on airway resistance (RL) OVA-sensitization (day 28) and naïve rats were anesthetized with isoflurane (5%, balance O2) and instrumented for surgery. […] Data were analyzed with two-way repeated measures ANOVA (time×group). […] Airway mechanics were measured in response to bradykinin nebulizations (as in Cohort 1). Heart rate was attained from the blood pressure waveform, SaO2 was monitored from a pulse oximeter (Kent Scientific, Torrington Conn.) and blood gases were analyzed from 0.1 ml arterial samples drawn before and after bradykinin with a blood gas analyzer (Element POC, Heska Barrie, ON). […]

The test system of a further assay is naïve Brown Norway rats. As to the kind of experiment: airway resistance after intravenous bolus in naïve anesthetized ventilated rats (Flexivent). The following applies: naïve rats with intact CSN; 0.5 ml bolus, 5 μM LPA or 6 μM NaCN. It is filed as in vivo.
The test system of another assay is asthmatic rats. The assay can be described thus: airway resistance after nebulized LPA in asthmatic rats (Cohort 5). The assay is classed as in vivo, rat. The following applies: nebulized LPA 5 μM.
The subject of another assay is glomus cells. As to the kind of experiment: Fura 2 calcium imaging of carotid body type I (glomus) cells. The following applies: LPA 5 μM. The assay is classed as cell-based, Sprague-Dawley rats. The procedure:
Sprague-Dawley rats (80-150 g, P21-28) were anaesthetised with isoflurane (3-5% in O2) and carotid bodies were harvested and digested in 0.4 mg ml^−1 collagenase type I (Worthington Biochemical Corporation, Lakewood, N.J.) and 0.2 mg ml^−1 trypsin type I (Sigma-Aldrich, St. Catherines, QC) in DPBS enzyme solution with low CaCl2) (86 μM) and MgCl2 (350 μM), for 20 min at 37° C. followed by dissociation with forceps and incubated for an additional 7 min. The tissue was centrifuged (115 g) for 3 min, supernatant removed and the pellet re-suspended in Ham's F12 (Sigma-Aldrich, St. Catherines, QC) supplemented with 10% heat inactivated fetal bovine serum (Biowest, San Marcos, Tex.). Cells were released by trituration with fire polished silanised Pasteur pipettes (Sigma-Aldrich, St. Catherines, QC). […]
Type I cells were loaded with 5 μM FURA-2AM (Invitrogen, Carlsbad Calif.) in serum free Ham's F12 nutrient media for 30 min at room temperature in humidified 5% CO2, 10% O2, before being transferred to FURA-2AM-free media in the same conditions for 20 min. […] The FURA-2 loaded cells were excited by 50 ms exposures to 340/380 nm light using a Lambda 10-3 filter wheel every 5 s and emitted light was recorded at 510 nm using a Coolsnap HQ2 CCD camera (Photometrics, Tucson Ariz.). […]

Assay [2] concerns carotid body. As to the kind of experiment: in situ dual-perfused preparation: phrenic and vagal nerve discharge after LPA to the carotid body circulation. The note with it: carotid bodies intact. Further details: species or system Sprague-Dawley rats.

`CC(C)(C)c1ccc(/C=C/C(=O)Nc2ccc3c(c2)OCCO3)cc1` [AMG9810, (2E)-N-(2,3-Dihydro-1,4-benzodioxin-6-yl)-3-[4-(1,1-dimethylethyl)phenyl]-2-propenamide]: the “reduction of 5 μM LPA-mediated carotid sinus nerve excitation” value (from here on “reduction”) in the assay on carotid body [1] came out at 41±6%. For the same molecule, in the assay on carotid body [1] (AMG9810 10 μM added after LPAr blockade (dual block), LPA 5 μM), the “LPA response remaining after BrP-LPA or Ki16425 blockade, on subsequent application of AMG9810” value is on record as “blocks the LPA response; also recorded: almost abolished”. For the same molecule, the “effect on bradykinin-induced increase in RL compared to OVA” value (from here on “effect on bradykinin-induced increase”) in the assay with OVA-sensitized rats is “abolished the effects of bradykinin”.

`CCCCCCCCCCCCCCCC(=O)OC[C@@H](O)CC(Br)P(=O)(O)O` (stereo partly drawn) [BrP-LPA, [(3S)-1-bromo-4-hexadecanoyloxy-3-hydroxybutyl]phosphonic acid]: in the assay on carotid body [1], the “reduction” value came to 70±3%, the “effect of LPAr blockade on carotid sinus nerve response to LPA (5 μM)” value is “diminishes the response to LPA” and the “en bloc carotid body's response to LPA blocked” value was “Approximately 70%”. Also, the “effect on bradykinin-induced increase” value with OVA-sensitized rats is “abolished the effects of bradykinin”.

Consider `Cc1noc(-c2ccc(CSCCC(=O)O)cc2)c1NC(=O)OC(C)c1ccccc1Cl` (stereo not drawn) [Ki16425, 3-(4-[4-([1-(2-chlorophenyl)ethoxy]carbonylamino)-3-methyl-5-isoxazolyl]benzylsulfanyl) propanoic acid], for which, in the assay on carotid body [1], the “reduction” value came to 61±9%, the “effect of LPAr blockade on carotid sinus nerve response to LPA (5 μM)” value is “diminishes the response to LPA” and the “en bloc carotid body's response to LPA blocked” value was “Approximately 70%”. The “effect on bradykinin-induced increase” value with OVA-sensitized rats is “abolished the effects of bradykinin”.

As for Oleoyl-Lysophosphatidic acid [LPA], the airway resistance entry in the assay with naïve Brown Norway rats is on record as “increased airway resistance”. For the same molecule, the “immediate effect of nebulized LPA on airway resistance” value in the assay with asthmatic rats is on record as “no immediate effect”. Besides, the “airway resistance after 30 min of nebulized LPA” value with asthmatic rats (abolished by carotid body denervation) is “increase in airway resistance”. Besides, the “intracellular calcium in glomus cells” value in the assay with glomus cells is “increased intracellular calcium release”. The “phrenic nerve burst amplitude” value with carotid body [2] (LPA 5 μM delivered to the CB circulation, baseline 1±0.5) turned out to be 2.5±0.5 normalized units. In the assay on carotid body [2] (LPA 5 μM delivered to the CB circulation, baseline 1.2±0.8), the “phrenic nerve burst rate” value was determined as 20.8±2.9 burst·min^−1. Also, the “phrenic and vagal nerve efferent discharge” value with carotid body [2] (bolus of 5 μM LPA) was “increases”.
